According to paper PMC7031696 (Cell chemical biology, 2019):

Tested on: 3D7-MR4 trophozoite parasite-infected RBCs
Assay: Metabolomic profiling (hydrophilic metabolite changes, UHPLC-MS)
Format: cell-based, Plasmodium falciparum

## CC(C)(C)NCc1cc(Nc2ccnc3cc(Cl)ccc23)c2c(c1O)CCCC2 [Naphtoquine, Naphthoquine, reference compound]
Metabolite adenosine, log2 fold change
  Log2(fold changes) adenosine: 0.0000
Metabolite alanine/sarcosine, log2 fold change
  Log2(fold changes) alanine/sarcosine: -0.0537
Metabolite anthranilate, log2 fold change
  Log2(fold changes) anthranilate: 0.0000
Metabolite arginine, log2 fold change
  Log2(fold changes) arginine: 0.0159
Metabolite asparagine, log2 fold change
  Log2(fold changes) asparagine: 0.0139
Metabolite aspartate, log2 fold change
  Log2(fold changes) aspartate: -0.0605
Metabolite biotin, log2 fold change
  Log2(fold changes) biotin: 0.0000
Metabolite cCMP, log2 fold change
  Log2(fold changes) cCMP: 0.0520
Metabolite cGMP, log2 fold change
  Log2(fold changes) cGMP: 0.0000
Metabolite carnitine, log2 fold change
  Log2(fold changes) carnitine: 0.0000
Metabolite citrate/isocitrate, log2 fold change
  Log2(fold changes) citrate/isocitrate: -0.0500
Metabolite coenzyme A
  Log2(fold change) of coenzyme A: -0.1736
Metabolite cyclic-AMP
  Log2(fold change) of cyclic-AMP: -3.95e-5
Metabolite cytidine
  Log2(fold change) of cytidine: 0.0481
Metabolite dAMP
  Log2(fold change) of dAMP: -0.6907
Metabolite dATP
  Log2(fold change) of dATP: 0.1926
Metabolite dCDP
  Log2(fold change) of dCDP: -0.7164
Metabolite dCMP
  Log2(fold change) of dCMP: -0.1991
Metabolite dCTP
  Log2(fold change) of dCTP: -0.0054
Metabolite dGDP/ADP
  Log2(fold change) of dGDP/ADP: -0.3882
Metabolite dGMP/AMP
  Log2(fold change) of dGMP/AMP: -0.6721
Metabolite dGTP/ATP
  Log2(fold change) of dGTP/ATP: 0.1282
Metabolite dTDP
  Log2(fold change) of dTDP: -0.6082
Metabolite dTMP
  Log2(fold change) of dTMP: -0.8354
Metabolite dTTP
  Log2(fold change) of dTTP: 0.1193
Metabolite dUMP
  Log2(fold change) of dUMP: 0.0000
Metabolite dUTP
  Log2(fold change) of dUTP: 0.0000
Metabolite deoxyguanosine
  Log2(fold change) of deoxyguanosine: 0.0000
Metabolite deoxyinosine
  Log2(fold change) of deoxyinosine: 0.0000
Metabolite deoxyribose-phosphate
  Log2(fold change) of deoxyribose-phosphate: 0.0000
Metabolite deoxyuridine
  Log2(fold change) of deoxyuridine: 0.0000
Metabolite dihydroorotate
  Log2(fold change) of dihydroorotate: -0.0270
Metabolite folate
  Log2(fold change) of folate: -0.0482
Metabolite fructose-1-6-bisphosphate
  Log2(fold change) of fructose-1-6-bisphosphate: 0.2760
Metabolite fructose-6-phosphate
  Log2(fold change) of fructose-6-phosphate: 0.2447
Metabolite fumarate
  Log2(fold change) of fumarate: 0.1140
Metabolite glucono-lactone
  Log2(fold change) of glucono-lactone: 0.0480
Metabolite glucose-1/6-phosphate
  Log2(fold change) of glucose-1/6-phosphate: 0.0000
Metabolite glutamate
  Log2(fold change) of glutamate: 0.0377
Metabolite glutamine
  Log2(fold change) of glutamine: 0.0892
Metabolite glutathione
  Log2(fold change) of glutathione: -0.0422
Metabolite glutathione disulfide
  Log2(fold change) glutathione disulfide: -0.0039
Metabolite glycerate
  Log2(fold change) glycerate: 0.0000
Metabolite guanine
  Log2(fold change) guanine: -1.1501
Metabolite guanosine
  Log2(fold change) guanosine: 0.0000
Metabolite histidine
  Log2(fold change) histidine: 0.1439
Metabolite homocysteic acid
  Log2(fold change) homocysteic acid: 0.0000
Metabolite hydroxyphenylpyruvate
  Log2(fold change) hydroxyphenylpyruvate: 0.0000
Metabolite hydroxyproline/Aminolevulinate
  Log2(fold change) hydroxyproline/Aminolevulinate: 0.1631
Metabolite hypoxanthine
  Log2(fold change) hypoxanthine: 0.0000
Metabolite indole
  Log2(fold change) indole: 0.0000
Metabolite inosine
  Log2(fold change) inosine: -0.4099
Metabolite isoleucine
  Log2(fold change) isoleucine: 0.1976
Metabolite lactate
  Log2(fold change) lactate: -0.2436
Metabolite leucine
  Log2(fold change) leucine: 0.1923
Metabolite lysine
  Log2(fold change) lysine: 0.0742
Metabolite malate
  Log2(fold change) malate: 0.0333
Metabolite maleic acid
  Log2(fold change) maleic acid: 0.0474
Metabolite methionine
  Log2(fold change) methionine: 0.2831
Metabolite myo-inositol
  Log2(fold change) myo-inositol: -0.3601
Metabolite nicotinamide mononucleotide
  Log2(fold change) nicotinamide mononucleotide: 0.0144
Metabolite nicotinate
  Log2(fold change) nicotinate: -0.5500
Metabolite ornithine
  Log2(fold change) ornithine: 0.0000
Metabolite orotate
  Log2(fold change) orotate: -0.1816
Metabolite orotidine-5'-phosphate
  Log2(fold change) orotidine-5'-phosphate: -0.1754
Metabolite oxaloacetate
  Log2(fold change) oxaloacetate: 0.0000
Metabolite p-aminobenzoate
  Log2(fold change) p-aminobenzoate: 0.0000
Metabolite p-hydroxybenzoate
  Log2(fold change) p-hydroxybenzoate: 0.0000
Metabolite pantothenate
  Log2(fold change) pantothenate: 0.0000
Metabolite phenylalanine
  Log2(fold change) phenylalanine: 0.1566
Metabolite phenylpyruvate
  Log2(fold change) phenylpyruvate: 0.0000
Metabolite phosphoenolpyruvate
  Log2(fold change) phosphoenolpyruvate: 0.1381
Metabolite prephenate
  Log2(fold change) prephenate: 0.0000
Metabolite proline
  Log2(fold change) proline: -0.0640
Metabolite pyridoxine
  Log2(fold change) pyridoxine: -0.2953
Metabolite pyruvate
  Log2(fold change) pyruvate: -0.0949
Metabolite riboflavin
  Log2(fold change) riboflavin: 0.0784
Metabolite ribose
  Log2(fold change) ribose: 0.2671
Metabolite ribose-phosphate
  Log2(fold change) ribose-phosphate: 0.0683
Metabolite ribulose-5-phosphate
  Log2(fold change) ribulose-5-phosphate: 0.2669
Metabolite serine
  Log2(fold change) serine: 0.0398
Metabolite sn-glycerol-3-phosphate
  Log2(fold change) sn-glycerol-3-phosphate: 0.2727
Metabolite succinate/Methylmalonic acid
  Log2(fold change) succinate/Methylmalonic acid: 0.1812
Metabolite succinyl-CoA/methylmalonyl-CoA
  Log2(fold change) succinyl-CoA/methylmalonyl-CoA: 0.0000
Metabolite taurine
  Log2(fold change) taurine: 0.1018
Metabolite thiamine
  Log2(fold change) thiamine: -0.0320
Metabolite threonine/homoserine
  Log2(fold change) threonine/homoserine: -0.0093
Metabolite thymidine
  Log2(fold change) thymidine: 0.0000
Metabolite thymine, log2 fold change
  Log2(fold changes) thymine: 0.0000
Metabolite trehalose-6-Phosphate, log2 fold change
  Log2(fold changes) trehalose-6-Phosphate: 0.0000
Metabolite tryptophan, log2 fold change
  Log2(fold changes) tryptophan: 0.2627
Metabolite tyrosine, log2 fold change
  Log2(fold changes) tyrosine: 0.1902
Metabolite uridine, log2 fold change
  Log2(fold changes) uridine: 0.0000
Metabolite valine, log2 fold change
  Log2(fold changes) valine: 0.0658
Metabolite xanthine, log2 fold change
  Log2(fold changes) xanthine: -0.8439
Metabolite xanthosine-5-phosphate, log2 fold change
  Log2(fold changes) xanthosine-5-phosphate: 0.0356
Metabolite xanthosine, log2 fold change
  Log2(fold changes) xanthosine: 0.2527
Metabolite xylose, log2 fold change
  Log2(fold changes) xylose: 0.0000
